Earlier results in publication PMC2785207 (The Journal of Biological Chemistry, 2009).

How the values were obtained:
[1] = test system: CobB; conditions: E. coli sirtuin CobB; ref [17], [18]
[2] = test system: Sir2; conditions: reaction product; reacts with the O-alkylamidate to regenerate NAD+ and acetyl lysine; ref [14], [15]

Structure (SMILES) | ribosylation by CobB [1] | inhibition of the Sir2 deacetylation reaction [2]
Cc1cc2nc[nH]c2cc1C [5,6-dimethylbenzimidazole] | ribosylates | –
NC(=O)c1cccnc1 [nicotinamide] | – | inhibited
